Test results as given in PubChem BioAssay (NCI).
“And” between values parts separate entries of the source, which are not always exact repeats. Equal values may be shown once.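 Briefly, cells in 96-well plates were exposed to five compound concentrations for 48 h, and endpoints were estimated by linear interpolation. GI50: concentration for 50% inhibition of growth. TGI denotes the concentration required for complete inhibition of growth.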

Legend:
Test in all cases: NCI tumour cell line growth inhibition, 48 h
[1] = test system: NCI-H522 lung
[2] = test system: K-562 leukemia
[3] = test system: OVCAR-5 ovarian
[4] = test system: OVCAR-3 ovarian
[5] = test system: UO-31 renal
[6] = test system: KM12 colon
[7] = test system: SR leukemia
[8] = test system: SNB-19 CNS
[9] = test system: HCT-116 colon
[10] = test system: RPMI-8226 leukemia

Row | SMILES | GI50 [1] [µM] | TGI [1] | GI50 [2] [µM] | TGI [2] [µM] | GI50 [3] [µM] | TGI [3] [µM] | GI50 [4] [µM] | TGI [4] [µM] | GI50 [5] [µM] | TGI [5] | GI50 [6] [µM] | TGI [6] [µM] | GI50 [7] [µM] | TGI [7] [µM] | GI50 [8] [µM] | TGI [8] | GI50 [9] [µM] | TGI [9] [µM] | GI50 [10] [µM] | TGI [10]
1 | Cc1cc(C)c2c(n1)sc1c(N)ncnc12 | > 25 | > 25 µM | > 25 | > 25 | > 25 | > 25 | > 25 | > 25 | 12.9 | > 25 µM | > 22.3 | > 25 | 9.43 | > 25 | > 25 | > 25 µM | 24.4 | > 25 | > 25 | > 25 µM
2 | O=C(Nc1ccc(-n2ccc3c(NC(=O)c4ccccc4)ncnc32)cc1)c1cccc(C(F)(F)F)c1 | 1.87 | 20.6 µM | 0.13 | > 53.8 | 6.18 | 31.7 | 4.37 | 20.9 | 3.42 | 21.7 µM | 0.626 | 16.7 | 0.0678 | > 32.5 | 2.13 | 33.4 µM | 0.139 | 15.9 | 1.6 | 33.3 µM
3 | COC(=O)C12CC(NC(=O)c3csc([C@@H](C[C@H](C(C)C)N(C)C(=O)[C@@H](NC(=O)[C@H]4CCCCN4C)C4CC4)OC(C)=O)n3)(C1)C2 | 0.00375 | 3.15 µM | 0.00549 | > 16.7 | 0.135 | > 16.7 | 0.0059 |  | 0.614 | > 16.7 µM | 0.0363 | > 16.7 | 0.00193 | > 16.7 | 0.0581 | > 16.7 µM | 0.0228 | > 16.7 | 0.00674 | > 16.7 µM
4 | CC(C)(O)/C=C/C(=O)[C@](C)(O)[C@H]1[C@H](O)C[C@@]2(C)[C@@H]3CC=C4[C@@H](C[C@H](O)C(=O)C4(C)C)[C@]3(C)C(=O)C[C@]12C | 0.069 | 0.453 µM and 0.775 µM | 0.0608 | 37 | 0.692 |  | 0.125 | 1.02 | 0.206 | 0.396 µM and 0.519 µM | 0.948 | 25 | 0.39 | 5.05 | 0.0476 | 0.349 µM and 0.951 µM | 0.164 |  | 0.0666 | 0.915 µM and 0.824 µM
5 | COc1ccc(Nc2nc3ccccc3c3occc23)cc1 | 14.5 | 33 µM | 6.74 | > 50 | 7.95 | 16.6 | 7.85 | > 50 | 12.3 | > 50 µM | 1.78 | 7.99 | 0.663 | > 50 | 7.62 | 16.5 µM | 6.9 | 13.4 | 8.35 | 22.6 µM
6 | O=c1c2cc(-c3ccccc3)sc2ncn1Cc1ccc(Cl)c(Cl)c1 | 6.43 | 53.1 µM | 20.7 | > 100 | 5.46 | > 100 | 15.8 | 36.2 | 31.8 | > 100 µM | 0.32 | 6.38 | 5.14 | 17.9 | 26.8 | > 100 µM | 15 | 41.1 | 36.8 | > 100 µM
7 | CCn1c(-c2cc3c([nH]c4ccccc43)c(-c3cccc(O)c3)n2)n[nH]c1=S | 2.02 | 7.07 µM | 1.88 | > 100 | 6.34 | 32.9 | 3.13 | 11.4 | 2.24 | 11.8 µM | 3.24 | 12.4 | 1.67 | 6.97 | 4.28 | 16.6 µM | 3.88 | 15 | 2.5 | 8.78 µM
8 | [O-][N+]1(CC[N+]2([O-])CCCCC2)CCCCC1 |  | > 100 µM |  | > 100 |  | > 100 |  | > 100 |  | > 100 µM |  | > 100 |  | > 100 |  | > 100 µM |  | > 100 |  | > 100 µM
9 | NS(=O)(=O)c1ccc(N=Nc2c(O)[nH]c3ccc(C(=O)NCc4ccncc4)cc23)cc1 | > 25 | > 25 µM | > 25 | > 25 | > 25 | > 25 | > 25 | > 25 | > 25 | > 25 µM | > 25 | > 25 | > 25 | > 25 | > 25 | > 25 µM | > 25 | > 25 | > 25 | > 25 µM
10 | O=c1cccccc1NCCCCCCCNc1cccccc1=O |  | 55.2 µM |  | > 100 |  | > 100 |  | > 100 |  | 80.3 µM |  | > 100 |  | 89.8 |  | > 100 µM |  | > 100 |  | 55.1 µM
11 | NC(=O)[C@@H](CC1CC1)[C@@H](CCC(F)(F)F)C(=O)N[C@H]1N=C(c2ccccc2)c2cccc(F)c2NC1=O | > 100 | > 100 µM | 46.9 | > 100 | > 100 | > 100 | > 100 | > 100 | 75.3 | > 100 µM | > 100 | > 100 | 12 | > 100 | > 100 | > 100 µM | > 100 | > 100 | 27.8 | > 100 µM
12 | C=C/C(C)=C/C[C@]1(C)[C@H](C)[C@@H](OC(=O)CCC)[C@H](O)[C@@]23C(=C[C@H](OC)C[C@@H]12)[C@@H](OC(=O)CCC)O[C@H]3OC(C)=O | 0.239 | 0.741 µM | 0.438 | 2.41 | 0.576 | 2.54 | 0.191 | 0.4 | 0.212 | 0.586 µM | 0.55 | 1.96 | 0.324 | 1.49 | 1.66 | 3.58 µM | 0.495 | 1.96 | 0.341 | 1.65 µM
13 | Oc1c(Cl)cc(Cl)c2ccc(Cn3cc(-c4cc(C(F)(F)F)cc(C(F)(F)F)c4)nn3)nc12 | 1.25 | 3.55 µM | 0.313 | > 100 | 2.9 | 9.23 | 1.28 | 2.56 | 1.6 | 5.51 µM | 10.5 | 23.4 | 0.714 | 5.68 | 8.28 | 21.8 µM | 0.481 | 1.76 | 1.32 | 4.74 µM
